# From patent US11370822B2, “Self-assembling peptide for activating human mast cells” (The Governors of the University of Alberta, priority 2017, dated 2022)
# Tests used:
# [1] = AFM morphology of self-assembling peptide nanofiber matrices; format: physicochemical
# Protocol: (§1) (RADA)4 (SEQ ID NO: 1) and (RADA)4-GG-(PAMP-12) (SEQ ID NO:2) stock solutions (1.0% w/v) were prepared by dissolving peptide powder in syringe filtered (0.2 μm) Milli-Q water. Peptide stock solutions were sonicated for 30 min to avoid bulk aggregates and reduce viscosity. (RADA)4 peptide solutions with different proportion of (RADA)4-GG-(PAMP-12) (SEQ ID NO: 2) (0, 2.5, 5, 10, 20, 40, 80, 100% w/w) were mixed with 1x PBS (pH 7.4) at a ratio of 1:1 (v/v) to get hydrogel matrices with peptide concentration of 0.5% w/v. Fifty μl of the mixture was placed at the bottom of a 96-well plate or well insert, overnight at 4° C. and washed with HEPES buffer (10 mM, with 0.4% BSA, pH 7.4) or PBS for 3 times.
# The morphology of the hydrogel matrices were measured using Dimension 3100 Nanoman Atomic Force Microscopy (AFM, Veeco Metrology, LLC) with tapping mode, tip radius of 8 nm. Matrix solutions used in AFM studies were prepared by 500 times diluted with Mili-Q water. A drop (5 ul) of each solution was placed on freshly cleaved mica substrate then rise with water. The surfaces were air dried overnight at room temperature before being imaged.
# LAD2 cells [2] = assay: β-hex release assay, LAD2 cells on top of hydrogel matrices; format: cell-based, human; conditions: for degranulation activity (β-hex release): 30 min
# Protocol: as §1
# LAD2 (Laboratory of Allergic Diseases 2) human mast cells were incubated in StemPro-34 SFM medium (Life Technologies, Rockville, Md.) supplemented with 2 mM L-glutamine, 100 I/ml penicillin, 50 μg/ml streptomycin, 100 ng/ml recombinant human SCF (Peprotech, Rocky Hill, N.J.). Cells were maintained at 0.1×10^6 cells/ml at 37° C. and 5% CO2. Cell suspensions were isolated via centrifugation (200 g, 5 min, at room temperature) and media was replaced every 3-7 days.
# To evaluate the effect of the matrices on degranulation, 0.25×10^5 LAD2 cells in 50 μl HEPES buffer (10 mM, with 0.4% BSA, pH 7.4) were carefully placed on the top of 50 μl hydrogel matrices, and the β-hex release was measured as described. After 30 min incubation, cell free supernatant and total cells with the matrices were collected by centrifugation (300 g, 5 min) for analysis.
# LAD2 cells [3] = assay: Laser-scanning confocal microscopy of LAD2 cells on hydrogel matrices (adhesion, F-actin); format: cell-based, human; conditions: 0.5% w/v matrix (pure (RADA)4 or 20% w/w (RADA)4-GG-(PAMP-12))
# Protocol: For each sample, 0.25×10^5 LAD2 cells in 50 μl culture medium were allowed to incubate with 50 μl hydrogel matrix for 30 min at 37° C. After incubation, the medium was disposed, and hydrogel matrix was carefully washed by warm PBS for 3 times to remove non-adherent cells. Hydrogel matrices were then fixed in 3.7% paraformaldehyde in PBS for 20 min at room temperature and 3 times washed in PBS. Cells were permeabilized with 0.1% Triton X-100 in PBS for 5 min, washed in PBS for 3 times, then followed by 3% BSA blocking for 30 min and 3 times washing in PBS. To stain F-actin, samples were incubated with 0.5 μM Phalloidin-FITC (Sigma-Aldrich, USA) for 30 minutes and followed by 3 times washing in PBS. Cell nuclei were stained with 1 ug/mL DAPI (Sigma-Aldrich, USA) in PBS for 30 min. After 3 times washing in PBS, Z-slice images of the matrix with adhered LAD2 cells were collected using Laser Scanning Confocal Microscopy (LSM710, Carl Zeizz AG, Oberkochen, Germany) with an inverted 10× objective.
# TPSAB1 (tryptase) mRNA = assay: In vitro activation of mast cells in human skin, ddPCR for TPSAB1 expression; conditions: human skin without epidermis (NSE), 4 h; 10 μM PAMP-12, pure (RADA)4 matrix or matrix with 20% w/w (RADA)4-GG-(PAMP-12); NS average taken as 100
# Text: Human skin was harvested from abdominoplasty surgical discard specimens obtained following written informed consent as approved by the University of Alberta research ethics board. All tissue was from healthy non-smokers in their 30s. Human skin was separated from the underlying adipose tissue using a 15 blade scalpel. The epidermis was then removed using a […] dermatome (Integra LifeSciences Corporation, Cincinnati, Ohio) set to 0.25 mm thickness. The deepithelialized dermis was then divided into multiple pieces 1 cm^2 using sharp surgical scissors. Control or active hydrogel matrix (100 μl) was then layered onto the exposed surface of the dermis. […] For some groups, PBS and PAMP-12 PBS solution were used as negative and positive control. Following this, tissue pieces were removed and snap frozen in liquid nitrogen and stored at -80° C. until further processing. […] To obtain the absolute quantity of TPSAB1 transcripts, ddPCR (QX100, Bio-Rad, Hercules, Calif.) was employed using 5 ng of each cDNA sample and ddPCR supermix for the specific probes (Bio-Rad) according to manufacturer's protocols. […] QuantaSoft Software (Bio-Rad) was employed to analyze ddPCR results, and the absolute concentration of TPSAB1 transcripts in each sample determined by ddPCR was divided by the ACTB transcripts and presented as percentage based on normal skin samples (NS average taken as 100).
# LAD2 cells [4] = assay: Cell viability analysis using XTT assay
# Protocol: LAD2 cells were suspended in culture medium (50 μl, 1.0×10^6 cells/ml) and placed on top of 50 μl of hydrogel matrix or culture medium solution. After an 4 h or 24 h incubation, cell viability was measured using a 2,3-bis-(2-methoxy-4-nitro-5-sulfophenyl)-2H-tetrazolium-5-carboxanilide (XTT) proliferation kit (Roche Molecular Biochemicals, Indianapolis, Ind., USA), according to the manufacturer's supplied instructions. To facilitate a uniform distribution of color throughout the hydrogel matrix, 50 μl of DMSO was added into each well prior to analysis.
# [5] = pure (RADA)4-GG-(PAMP-12), 0.5% w/v
smiles,measurement,setting,value
CC(=O)N[C@@H](CCCNC(=N)N)C(=O)N[C@@H](C)C(=O)N[C@@H](CC(=O)O)C(=O)N[C@@H](C)C(=O)N[C@@H](CCCNC(=N)N)C(=O)N[C@@H](C)C(=O)N[C@@H](CC(=O)O)C(=O)N[C@@H](C)C(=O)N[C@@H](CCCNC(=N)N)C(=O)N[C@@H](C)C(=O)N[C@@H](CC(=O)O)C(=O)N[C@@H](C)C(=O)N[C@@H](CCCNC(=N)N)C(=O)N[C@@H](C)C(=O)N[C@@H](CC(=O)O)C(=O)N[C@@H](C)C(=O)NCC(=O)NCC(=O)N[C@@H](Cc1ccccc1)C(=O)N[C@@H](CCCNC(=N)N)C(=O)N[C@@H](CCCCN)C(=O)N[C@@H](CCCCN)C(=O)N[C@@H](Cc1c[nH]c2ccccc12)C(=O)N[C@@H](CC(N)=O)C(=O)N[C@@H](CCCCN)C(=O)N[C@@H](Cc1c[nH]c2ccccc12)C(=O)N[C@@H](C)C(=O)N[C@@H](CC(C)C)C(=O)N[C@@H](CO)C(=O)N[C@@H](CCCNC(=N)N)C(N)=O [(RADA)4-GG-(PAMP-12)],nanofiber length (most of the nanofibers),"[1]; 20% and 40% w/w (RADA)4-GG-(PAMP-12) in (RADA)4, 0.5% w/v",> 500 nm
same,nanofiber length (most of the nanofibers),[1]; [5],less than 500 nm
same,nanoparticle size,[1]; [5],less than 200 nm
same,nanostructure morphology,"[1]; pure peptide, 0.5% w/v",thick and short nanofibers and even small nanoparticles
same,nanofiber height (AFM cross section),"[1]; pure peptide, 0.5% w/v matrix",2.5-3.5 nm
same,degranulation activity (β-hex release),LAD2 cells [2]; 0.5% w/v hydrogel matrix with 20% w/w (RADA)4-GG-(PAMP-12),64.2±3.4%
same,degranulation activity (β-hex release),LAD2 cells [2]; 0.5% w/v hydrogel matrix with 40% w/w (RADA)4-GG-(PAMP-12),70.2±7.1%
same,degranulation activity versus proportion in matrix,LAD2 cells [2]; (RADA)4-GG-(PAMP-12) from 2.5 to 20% w/w in matrix,increased proportionally
same,F-actin organization / cell morphology of LAD2 cells,LAD2 cells [3]; 2D imaging,lamellipodia and filopodia were observed
same,LAD2 cells associated with matrix post-wash,LAD2 cells [3]; 30 min incubation,considerable amount of cells retained after washing
same,"TPSAB1 expression level, normalized to ACTB",TPSAB1 (tryptase) mRNA,191.1±12.0 percentage
same,cytotoxicity to LAD2 cells (XTT),"LAD2 cells [4]; PAMP-12 10 μM, 0.5% w/v hydrogel matrices (pure (RADA)4 or 20% w/w (RADA)4-GG-(PAMP-12)), 4 h or 24 h",not cytotoxic
same,effect on LAD2 proliferation (XTT),"LAD2 cells [4]; same treatments, after 24 h incubation",no statistically significant effect
